In assay [1] the test system is MCF7. Put plainly: Cytotoxicity against human MCF7 cells assessed as reduction in cell viability after 72 hrs by MTT assay. It is filed as functional, cell-based. The following applies: MCF7, 72 h. For orientation: Tetrazolium dyes change colour on reduction, which living cells bring about.
Assay [2] is described as follows: Cytotoxicity against human SKBR3 cells assessed as reduction in cell viability after 72 hrs by MTT assay. The class given is functional, cell-based. The following applies: SK-BR-3, 72 h.
The nature of assay [3]: Cytotoxicity against human HCT116 cells assessed as reduction in cell viability after 72 hrs by MTT assay. The class given is functional, cell-based. The following applies: HCT-116, 72 h.
A short description of assay [4]: Cytotoxicity against human MOLT4 cells assessed as reduction in cell viability after 72 hrs by MTT assay. The class given is functional, cell-based. The following applies: MOLT-4, 72 h.
Assay [5] has as its target T1, DNA topoisomerase 1 (Homo sapiens) (UniProt P11387).
T1 sequence (whole entry): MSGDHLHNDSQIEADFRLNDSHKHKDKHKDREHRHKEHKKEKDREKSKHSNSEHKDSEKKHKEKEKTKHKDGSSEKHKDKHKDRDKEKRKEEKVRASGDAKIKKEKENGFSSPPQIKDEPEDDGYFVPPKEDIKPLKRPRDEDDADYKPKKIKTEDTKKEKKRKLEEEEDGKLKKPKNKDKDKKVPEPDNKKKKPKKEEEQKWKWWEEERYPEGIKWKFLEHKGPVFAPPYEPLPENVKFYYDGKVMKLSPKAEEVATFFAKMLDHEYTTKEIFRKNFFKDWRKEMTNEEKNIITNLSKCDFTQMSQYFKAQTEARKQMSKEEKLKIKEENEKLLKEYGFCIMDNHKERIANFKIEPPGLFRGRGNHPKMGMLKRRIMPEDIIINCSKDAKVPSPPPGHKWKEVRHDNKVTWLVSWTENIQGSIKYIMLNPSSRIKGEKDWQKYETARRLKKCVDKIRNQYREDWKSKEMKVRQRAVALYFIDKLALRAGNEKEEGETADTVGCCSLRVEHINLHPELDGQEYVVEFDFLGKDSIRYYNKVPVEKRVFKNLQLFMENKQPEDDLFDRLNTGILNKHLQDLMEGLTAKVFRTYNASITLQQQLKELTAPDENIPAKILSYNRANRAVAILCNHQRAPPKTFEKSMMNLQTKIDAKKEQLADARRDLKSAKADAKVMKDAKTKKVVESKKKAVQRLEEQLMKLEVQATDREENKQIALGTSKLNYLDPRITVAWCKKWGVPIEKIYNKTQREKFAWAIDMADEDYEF
Put plainly: Inhibition of human recombinant topoisomerase 1-mediated relaxation of supercoiled pBS (SK+) DNA at 60 uM after 30 mins by ethidium bromide staining based agarose gel electrophoresis.

Assay [6] deals with DNA topoisomerase 2-alpha (Homo sapiens) (UniProt P11388). Kind of assay: Inhibition of human recombinant topoisomerase 2-mediated relaxation of supercoiled pBS (SK+) DNA at 60 uM after 30 mins by ethidium bromide staining based agarose gel electrophoresis.
The target in assay [7] is T1, DNA topoisomerase 1 (Homo sapiens). Put plainly: Poisoning activity at human recombinant topoisomerase 1 assessed as stabilization of enzyme-supercoiled pBS (SK+) DNA complex at 60 uM after 30 mins by ethidium bromide staining based agarose gel electrophoresis.
In assay [8] the target is DNA topoisomerase 2-alpha (Homo sapiens) (UniProt P11388). Put plainly: Poisoning activity at human recombinant topoisomerase 2 assessed as stabilization of enzyme-supercoiled pBS (SK+) DNA complex at 60 uM after 30 mins by ethidium bromide staining based agarose gel electrophoresis.
Assay [9] concerns the target T1, DNA topoisomerase 1 (Homo sapiens). Kind of assay: Poisoning activity at topoisomerase 1 in human MCF7 cells at 10 uM after 12 hrs by immunoband depletion assay. The class given is cell-based.
The target of assay [10] is DNA topoisomerase 2-alpha (Homo sapiens) (UniProt P11388). Kind of assay: Poisoning activity at topoisomerase 2 in human MCF7 cells at 10 uM after 12 hrs by immunoband depletion assay. The class given is cell-based.
Assay [11] addresses T1, DNA topoisomerase 1 (Homo sapiens). Kind of assay: Inhibition of CPT mediated formation of topoisomerase 1-supercoiled pBS (SK+) DNA complex in human MCF7 cells at 10 uM preincubated for 2 hrs followed by CPT addition measured after 4 to 12 hrs by immunoband depletion assay. The class given is cell-based.
Assay [12] has as its target DNA topoisomerase 2-alpha (Homo sapiens) (UniProt P11388). Kind of assay: Inhibition of ETO mediated formation of topoisomerase 2-supercoiled pBS (SK+) DNA complex in human MCF7 cells at 10 uM preincubated for 2 hrs followed by ETO addition measured after 4 to 12 hrs by immunoband depletion assay. The class given is cell-based.
In assay [13] the test system is MCF7. Kind of assay: Induction of apoptosis in human MCF7 cells assessed as late apoptotic cells at 8.27 uM after 24 hrs by Annexin-V-FITC/propidium iodide staining based flow cytometry (reference value: 0.1 %). It is filed as functional. For orientation: Flow cytometry measures light scatter and fluorescence of single cells or particles in a stream.
The subject of assay [14] is MCF7. Put plainly: Induction of apoptosis in human MCF7 cells assessed as viable cells at 8.27 uM after 48 hrs by Annexin-V-FITC/propidium iodide staining based flow cytometry (reference value: 99.2 %). The class given is functional. The conditions noted are these: MCF7, 48 h, read-out: Activity.
In assay [15] the test system is MCF7. Kind of assay: Induction of apoptosis in human MCF7 cells assessed as PARP-1 cleavage at 8.27 uM after 48 hrs by Western blot analysis. The class given is functional, cell-based. (In general: Immunoblotting shows a protein as a band on a membrane.)
Assay [16] concerns MCF7. Kind of assay: Cell cycle arrest in human MCF7 cells assessed as accumulation at G2/M phase at 8.27 uM after 24 hrs by propidium iodide staining based flow cytometry (reference value: 25 %). It is filed as functional.
The subject of assay [17] is MCF7. Kind of assay: Cell cycle arrest in human MCF7 cells assessed as accumulation at S phase at 8.27 uM after 24 hrs by propidium iodide staining based flow cytometry (reference value: 24.5 %). The class given is functional.
For assay [18], the system named is MCF7. Put plainly: Cell cycle arrest in human MCF7 cells assessed as accumulation at S phase at 8.27 uM after 48 hrs by propidium iodide staining based flow cytometry (reference value: 20.6 %). The class given is functional.
Assay [19] has as its system MCF7. Put plainly: Induction of mitochondrial membrane depolarization in human MCF7 cells assessed as ratio of red to green fluorescence at 8.27 uM after 24 hrs by JC-1 staining based FACS assay (reference value: 9.1). It is filed as functional.
Assay [20] concerns MCF7. Put plainly: Induction of apoptosis in human MCF7 cells assessed as viable cells at 11.33 uM after 24 hrs by Annexin-V-FITC/propidium iodide staining based flow cytometry (reference value: 95.9 %). It is filed as functional. The conditions noted are these: MCF7, 24 h, read-out: Activity.
The test system of assay [21] is MCF7. Kind of assay: Induction of apoptosis in human MCF7 cells assessed as early apoptotic cells at 11.33 uM after 24 hrs by Annexin-V-FITC/propidium iodide staining based flow cytometry (reference value: 2.3 %). It is filed as functional.
Assay [22] concerns MCF7. Put plainly: Induction of apoptosis in human MCF7 cells assessed as early apoptotic cells at 11.33 uM after 48 hrs by Annexin-V-FITC/propidium iodide staining based flow cytometry (reference value: 0.4 %). The class given is functional.
Assay [23] concerns MCF7. Kind of assay: Induction of mitochondrial membrane depolarization in human MCF7 cells at 11.33 uM after 24 hrs by JC-1 staining based FACS assay (reference value: 9.9 %). The class given is functional.
For assay [24], the system named is MCF7. Put plainly: Induction of ROS accumulation in human MCF7 cells at 11.33 uM after 12 hrs by CM-H2-DCFDA probe based flow cytometry (reference value: 5.1 %). It is filed as functional.
The test system of assay [25] is MCF7. Kind of assay: Cell cycle arrest in human MCF7 cells assessed as accumulation at G0/G1 phase at 11.33 uM after 24 hrs by propidium iodide staining based flow cytometry (reference value: 50.3 %). It is filed as functional.
Assay [26] concerns MCF7. Put plainly: Cell cycle arrest in human MCF7 cells assessed as accumulation at G2/M phase at 11.33 uM after 24 hrs by propidium iodide staining based flow cytometry (reference value: 25 %). It is filed as functional.
Assay [27] has as its system MCF7. Kind of assay: Induction of mitochondrial membrane depolarization in human MCF7 cells at 11.33 uM by JC-1 staining based FACS assay. The class given is functional, cell-based. The following applies: TDE = time-dependent effect.

pIC50: −log10 of the molar value. Calls of active or inactive are those of the source. The calls are words filed in the database; no cut-off is given here.

DNA topoisomerase 2-alpha (Homo sapiens), sequence (P11388 whole entry): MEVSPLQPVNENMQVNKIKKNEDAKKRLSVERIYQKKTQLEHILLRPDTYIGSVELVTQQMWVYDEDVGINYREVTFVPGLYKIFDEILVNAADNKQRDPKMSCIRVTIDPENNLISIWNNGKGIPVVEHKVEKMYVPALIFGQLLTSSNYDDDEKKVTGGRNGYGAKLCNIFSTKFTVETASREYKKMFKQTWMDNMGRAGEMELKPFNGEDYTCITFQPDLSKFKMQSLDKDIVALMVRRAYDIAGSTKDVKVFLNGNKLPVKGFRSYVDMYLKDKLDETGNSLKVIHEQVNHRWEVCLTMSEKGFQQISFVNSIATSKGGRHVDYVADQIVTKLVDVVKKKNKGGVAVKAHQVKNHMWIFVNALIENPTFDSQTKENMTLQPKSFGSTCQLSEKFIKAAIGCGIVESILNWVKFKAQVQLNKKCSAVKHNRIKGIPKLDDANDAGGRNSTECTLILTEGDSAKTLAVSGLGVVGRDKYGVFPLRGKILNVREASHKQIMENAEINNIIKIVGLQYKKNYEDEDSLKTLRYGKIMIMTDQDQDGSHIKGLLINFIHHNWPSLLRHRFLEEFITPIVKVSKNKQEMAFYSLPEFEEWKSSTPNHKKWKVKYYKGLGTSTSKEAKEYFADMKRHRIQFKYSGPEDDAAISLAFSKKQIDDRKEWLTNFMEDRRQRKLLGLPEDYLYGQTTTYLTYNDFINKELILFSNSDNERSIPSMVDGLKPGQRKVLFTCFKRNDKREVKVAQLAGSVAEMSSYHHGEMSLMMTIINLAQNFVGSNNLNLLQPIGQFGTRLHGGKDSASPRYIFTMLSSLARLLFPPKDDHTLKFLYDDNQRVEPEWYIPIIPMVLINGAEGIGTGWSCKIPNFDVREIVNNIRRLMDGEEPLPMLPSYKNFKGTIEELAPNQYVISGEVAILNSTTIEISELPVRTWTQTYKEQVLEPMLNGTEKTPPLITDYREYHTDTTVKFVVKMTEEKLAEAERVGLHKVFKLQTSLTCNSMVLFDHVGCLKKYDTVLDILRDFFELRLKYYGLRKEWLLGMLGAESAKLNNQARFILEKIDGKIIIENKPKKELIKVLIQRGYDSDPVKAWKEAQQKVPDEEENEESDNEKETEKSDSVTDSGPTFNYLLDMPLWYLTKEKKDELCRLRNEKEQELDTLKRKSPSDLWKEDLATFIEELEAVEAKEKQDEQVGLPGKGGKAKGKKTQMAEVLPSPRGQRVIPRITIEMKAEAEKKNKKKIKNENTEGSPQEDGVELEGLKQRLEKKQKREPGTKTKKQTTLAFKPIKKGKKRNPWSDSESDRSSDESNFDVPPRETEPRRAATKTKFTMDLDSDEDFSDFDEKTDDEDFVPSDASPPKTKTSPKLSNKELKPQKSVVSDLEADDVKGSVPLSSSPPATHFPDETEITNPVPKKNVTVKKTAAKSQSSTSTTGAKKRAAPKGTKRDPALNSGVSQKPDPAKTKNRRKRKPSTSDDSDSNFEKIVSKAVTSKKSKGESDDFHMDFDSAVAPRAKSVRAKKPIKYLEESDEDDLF

As a reminder, the pIC50 is the IC50 on a negative log10 scale, so that one unit is a factor of ten. In the case of `C[C@@H]1CC[C@@]2(OC1)O[C@H]1C[C@H]3[C@@H]4CC[C@H]5C[C@@H](O[C@@H]6O[C@H](CO)[C@H](O[C@@H]7O[C@H](CO)[C@@H](O)[C@H](O[C@@H]8OC[C@@H](O)[C@H](O)[C@H]8O)[C@H]7O[C@@H]7O[C@H](CO)[C@@H](O)[C@H](O)[C@H]7O)[C@H](O)[C@H]6O)CC[C@]5(C)[C@H]4CC[C@]3(C)[C@H]1[C@@H]2C` [DEGALACTOTIGONIN], the negative logarithm of the IC50 (pIC50) in assay [1] was 5.08; in assay [2] it was 5.03; in assay [3], 4.81; in [4], 4.93. Further, the inhibition entry in [5], in [6], in assay [11] and in assay [12] was “Active” throughout. For the same molecule, the outcome in assay [7], in [8], in assay [9] and in assay [10] was inactive. The Activity in [13] is reported as 0.5%; in [16] it was 28.5%; in [17] it was 27.5%; in [18], 40.1%. In assay [14], the viability at 8.27 µM was found to be 0.7%. Moreover, the result in assay [15] was Active. In assay [19], the Ratio amounted to 9.
Take `CC1(C)CC[C@]2(C(=O)O)CC[C@]3(C)C(=CC[C@@H]4[C@@]5(C)CC[C@H](O[C@@H]6O[C@H](C(=O)O)[C@@H](O)[C@H](O)[C@H]6O)C(C)(C)[C@@H]5CC[C@]43C)[C@@H]2C1`: the pIC50 in assay [1] is 4.95; in assay [2], 4.93; in assay [3] it was 4.74; in [4], 4.87. Further, the inhibition result in [5], in assay [6], in assay [11] and in [12] was “Active” throughout. For the same molecule, the result in [7], in [8], in assay [9] and in assay [10] was inactive. The viability at 11.33 µM in assay [20] is 87.5%. Further, the Activity in [21] is recorded as 11.6%; in assay [22], 46%; in assay [23], 14%; in assay [24], 50.4%; in [25], 45.9%; in assay [26], 24.3%. For the same molecule, in assay [27], the Activity result is “tde”.

The values are drawn from ChEMBL document CHEMBL3817761, “Chenopodium album metabolites act as dual topoisomerase inhibitors and induce apoptosis in the MCF7 cell line” (Medchemcomm, 2016).
